Assay results reported in US20260364073A1, “MAVACAMTEN AND DERIVATIVES THEREOF FOR USE IN TREATING ATRIAL DYSFUNCTION” (MyoKardia, Inc., priority 2022, published 2026).

What was measured:
[1] = test system: HCM pigs (heterozygous MYH7 R403Q mutation); test: Chronic Compound A treatment in mini-pig model of inherited HCM: mortality, cTnT, cardiac MRI; format: in vivo, Yucatan mini-pigs; conditions: chronic treatment PO
Text: (§1) FIG. 1 is a schematic diagram showing the design for an experiment on the chronic effects of Compound A on HCM and on left atrial and left ventricular geometry and function in a mini-pig model of inherited HCM (“HCM pigs”). Compound A dose is increased over the first 12 weeks of the study to account for weight gain. CMPD A: Compound A. CTRL: control. cMR: cardiac MRI. PV: LV pressure and volume studies (invasive hemodynamics). RNA: LV gene expression studies. HIST: histology. BIO: LV/LA fiber biomechanical studies.
This Example describes an in vivo study that evaluates the chronic effects of Compound A, in a genetic large-animal model of HCM.
(§2) Young (~1 month) cloned Yucatan mini-pigs with a heterozygous MYH7 R403Q mutation (“HCM pigs”) were treated and evaluated as shown in FIG. 1. The pigs were randomly assigned to one of two arms: untreated controls (CTRL, n=29) or daily Compound A (n=22; PO); untreated wild-type pigs (WT) served as […]. The pigs treated with Compound A were divided into two cohorts: A and B. Treated animals received progressively increasing Compound A doses (5, 7.5, 10, and 15 mg/day PO) to account for weight gain. After 14 weeks of treatment, pigs underwent in vivo cardiac MRI (cMR) imaging, including T1 mapping and extracellular volume (ECV) assessments. […]

α-MHC / β-MHC in the LA = test: LA myosin isoform content (α-MHC to β-MHC conversion) in HCM pigs; format: in vivo, Yucatan mini-pigs; conditions: HCM pigs (FIG. 3), in comparison to untreated HCM pig controls
Text: as §1
FIG. 3 is a set of graphs showing the effects of Compound A on left atrial (LA) geometry and function in HCM pigs.
as §2

[2] = target: T1, bovine cardiac synthetic myosin filaments (Bos taurus, UniProt Q9BE39); test: DRX and SRX ATPase rates in bovine cardiac synthetic myosin filaments; format: biochemical; conditions: role: inhibitor, range of concentrations (FIG. 5), Compound A compared with mavacamten
T1 construct: single-turnover ATPase (DRX/SRX)
T1 sequence (Q9BE39 whole entry): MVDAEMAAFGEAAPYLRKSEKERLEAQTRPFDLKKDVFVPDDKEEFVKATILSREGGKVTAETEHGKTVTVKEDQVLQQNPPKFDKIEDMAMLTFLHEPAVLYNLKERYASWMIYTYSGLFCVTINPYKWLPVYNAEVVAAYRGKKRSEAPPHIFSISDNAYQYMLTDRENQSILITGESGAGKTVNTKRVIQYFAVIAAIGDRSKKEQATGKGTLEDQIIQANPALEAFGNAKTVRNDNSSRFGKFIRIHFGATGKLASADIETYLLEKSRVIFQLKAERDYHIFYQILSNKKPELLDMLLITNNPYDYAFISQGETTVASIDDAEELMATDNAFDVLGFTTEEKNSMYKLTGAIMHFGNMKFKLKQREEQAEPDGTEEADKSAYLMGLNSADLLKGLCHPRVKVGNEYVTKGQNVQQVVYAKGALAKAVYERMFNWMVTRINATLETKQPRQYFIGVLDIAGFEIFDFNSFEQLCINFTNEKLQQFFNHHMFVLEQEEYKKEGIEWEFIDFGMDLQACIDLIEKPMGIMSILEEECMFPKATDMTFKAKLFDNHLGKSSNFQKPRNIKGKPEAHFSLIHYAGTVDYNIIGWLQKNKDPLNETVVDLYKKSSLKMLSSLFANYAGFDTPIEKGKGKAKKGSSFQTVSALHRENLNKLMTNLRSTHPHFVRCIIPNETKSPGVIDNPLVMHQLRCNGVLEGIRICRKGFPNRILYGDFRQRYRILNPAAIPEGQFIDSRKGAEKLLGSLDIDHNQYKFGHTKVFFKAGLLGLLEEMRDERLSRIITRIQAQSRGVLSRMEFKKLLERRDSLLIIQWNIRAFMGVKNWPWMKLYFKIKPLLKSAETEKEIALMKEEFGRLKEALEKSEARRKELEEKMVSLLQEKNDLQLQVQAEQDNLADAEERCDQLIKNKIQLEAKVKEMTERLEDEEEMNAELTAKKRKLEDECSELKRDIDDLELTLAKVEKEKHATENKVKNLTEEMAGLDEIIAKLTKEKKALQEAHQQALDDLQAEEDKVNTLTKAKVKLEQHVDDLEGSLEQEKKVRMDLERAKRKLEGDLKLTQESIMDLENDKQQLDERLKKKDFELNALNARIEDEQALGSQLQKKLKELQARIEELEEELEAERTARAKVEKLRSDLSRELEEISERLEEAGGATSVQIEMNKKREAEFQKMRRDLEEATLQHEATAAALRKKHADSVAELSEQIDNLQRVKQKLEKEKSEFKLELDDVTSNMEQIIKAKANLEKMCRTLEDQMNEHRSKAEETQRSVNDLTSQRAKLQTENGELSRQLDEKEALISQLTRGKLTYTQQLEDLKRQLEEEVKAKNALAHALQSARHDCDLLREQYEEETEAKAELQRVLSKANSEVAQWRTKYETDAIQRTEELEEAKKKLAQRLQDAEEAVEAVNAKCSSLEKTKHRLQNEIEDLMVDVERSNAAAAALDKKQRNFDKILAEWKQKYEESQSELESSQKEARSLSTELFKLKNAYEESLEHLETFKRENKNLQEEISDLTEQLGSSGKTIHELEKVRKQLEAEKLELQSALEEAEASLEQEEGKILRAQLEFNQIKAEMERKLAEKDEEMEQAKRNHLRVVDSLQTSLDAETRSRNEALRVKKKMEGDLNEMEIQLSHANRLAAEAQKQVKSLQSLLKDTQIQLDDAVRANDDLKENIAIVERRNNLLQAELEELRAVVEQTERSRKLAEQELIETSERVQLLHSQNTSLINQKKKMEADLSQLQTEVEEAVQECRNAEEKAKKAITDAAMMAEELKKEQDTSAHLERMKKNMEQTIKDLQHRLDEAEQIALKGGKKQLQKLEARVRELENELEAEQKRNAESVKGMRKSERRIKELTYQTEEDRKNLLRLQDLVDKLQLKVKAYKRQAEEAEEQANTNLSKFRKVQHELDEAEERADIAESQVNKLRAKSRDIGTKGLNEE
T1 sequence (P85100 whole entry partner): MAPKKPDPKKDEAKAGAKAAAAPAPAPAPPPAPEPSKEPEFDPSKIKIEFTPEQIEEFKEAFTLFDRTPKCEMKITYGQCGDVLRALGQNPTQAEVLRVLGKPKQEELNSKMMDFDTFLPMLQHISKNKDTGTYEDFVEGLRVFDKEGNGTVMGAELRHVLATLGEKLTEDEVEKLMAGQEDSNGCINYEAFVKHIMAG
T1 sequence (Q3SZE5 whole entry partner): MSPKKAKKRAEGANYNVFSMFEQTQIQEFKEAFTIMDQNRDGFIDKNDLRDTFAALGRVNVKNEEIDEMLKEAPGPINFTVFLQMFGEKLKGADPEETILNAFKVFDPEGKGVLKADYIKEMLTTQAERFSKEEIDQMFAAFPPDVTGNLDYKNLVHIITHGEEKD

| Structure (SMILES) | left atrial remodeling [1] | conversion of α-MHC to β-MHC in the LA (α-MHC / β-MHC in the LA) | disordered relaxed state (DRX) ATPase rate (as a fraction of control) [2] | super-relaxed state (SRX) ATPase rate (as a fraction of control) [2] |
| --- | --- | --- | --- | --- |
| CC(C)n1c(=O)cc(N[C@@H](C)c2cccc(F)c2)[nH]c1=O [Compound A] | prevented left atrial remodeling | prevented the conversion of α-MHC to β-MHC in the LA | similar | similar |
| CC(C)n1c(=O)cc(N[C@@H](C)c2ccccc2)[nH]c1=O [mavacamten] |  |  | similar | similar |
